Earlier results on one molecule are cited in patent US8044020B2, “Pharmaceutical compositions and methods for insulin treatment” (CPEX Pharmaceuticals, Inc., priority 2003, dated 2011).

For the data set the following is noted: beagles; previously determined (Hseih, 1993).

With `O=C1CCCCCCCCCCCCCCO1` [Cyclopentadecanolide], the “effect on migration of insulin through the nasal mucosa” value was “facilitates the migration of insulin through the nasal mucosa”.
